Results from patent publication US4857324A, “Exogenously acidified antacid compositions having cytoprotective properties” (priority 1987, dated 1989).

Columns and labels:
gastric mucosa = conditions: literature; cited from earlier work
gastric acid secretion = conditions: in vivo; cited from earlier work
[1] = system: ethanol induced gastric ulcers in the rat; assay: ethanol-induced lesion assay (cytoprotective activity) in rats; assay type: in vivo, rat (male Sprague-Dawley); conditions: for % INHIBITION: Table 4
Excerpt: The cytoprotective activity of a compound may be observed in both animals and man by noting the increase resistance of the gastrointestinal mucosa to the noxious effects of strong irritants, for example, the ulcerogenic effects of aspirin or indomethacin.
The ethanol-induced lesion assay is a standard test for cytoprotective activity and is described in an article by A. Robert et al entitled "Cytoprotection By Prostaglandins in Rats" published in Gastroenterology 77:433-443, 1979.
The ethanol-induced lesion assay was used to measure the cytoprotective ability of commercial antacids. Male Sprague-Dawley rats (supplier, Charles River, Willmington, Mass.) weighing between 120-150 g were used. The rats were fasted for 24 hr prior to use (water ad libitum). Before dosing, the animals were placed two per cage and denied water.
Animals were orally, i.e. intragastrically pretreated, one hour before ethanol administration with either RIOPAN Extra Strength suspension, MAALOX suspension, PGE2, or vehicle. One hour after ethanol administration, the rats were sacrificed by CO2 asphyxiation. The stomachs were removed and kept moist with saline until the lesions were scored. Ulcers were scored with the investigator unaware of the treatment groups (single blind). Ulcers were graded according to the following scale: […]
GRADE (Approximate length of lesion)
Absolute ethanol was given orally, 1 ml/rat. RIOPAN Extra Strength, 1080 mg magaldrate per 5 ml (lot 3RM4), and MAALOX, 200 mg Mg(OH)2 +225 mg Al(OH)3 per 5 ml (lot 64700), were administered orally as commercially available suspensions. The dose volume administered was based on the ED50 (ml of antacid/kg, see Table 1).
The dose volume of acidified antacid was adjusted for the volume of 6 N HCl added to the suspension. PGE2 was stored in 100% ethanol and diluted with normal saline before use.
Magaldrate of Example 1 and MAALOX of Example 2 were prepared as described above. The dose volume of nonbuffering antacid was adjusted for the volume of 6 N HCl added to the suspension during preparation. PGE2 was stored in 100% ethanol and diluted with normal saline before use.
The mean ulcer score of each treatment group was compared to the control group and expressed as the percent inhibition of ulcer formation.
The cytoprotective ED50 before and after acidification for the magaldrate of Example 1, referred to in this example as RIOPAN Extra Strength, and for MAALOX of Example 2 was calculated by standard regression analysis of the dose-response data. Confidence limits of 95% were calculated using the statistical differential method.
The spray dried powders of Examples 8 through 15 were tested for cytoprotective activity in the ethanol-induced lesion assay as described in Example 7.
The respective powders were admixed with sufficient water to form a liquid and the animals were dosed 400 milligrams of powder per kilo of body weight […]. in the test.
The experiments were performed using ten rats for each test composition and using the in vivo test procedure described in Example 7. The dose of acidified Extra Strength RIOPAN was selected for the test at 0.46 milliliters per kilogram of rat body weight. Approximately 4.6 times this amount (8 times on a mg/kg basis) was selected for the dose of commercial Extra Strength RIOPAN. Approximately 30 times this amount was selected for each dose of the Wenger et al solutions.
Two experiments were performed using ten rats for each test composition and again using the in vivo test procedure described in Example 7. In these experiments the dose in milliliters per kilogram of rat body weight was equal for each test composition.

[2] = per 5 ml of suspension or liquid; cited from earlier work
ethanol induced ulcer = conditions: Robert et al 1984; cited from earlier work

CCCCC[C@H](O)/C=C/[C@@H]1[C@@H](C/C=C\CCCC(=O)O)[C@@H](O)C[C@H]1O [prostaglandin F2]
gastric cytoprotection (in words) (gastric mucosa): does induce gastric cytoprotection
inhibition of gastric acid secretion (gastric acid secretion): does not inhibit gastric acid secretion

CCCCC[C@H](O)/C=C/[C@H]1[C@H](O)CC(=O)[C@@H]1C/C=C\CCCC(=O)O [PGE2]
% INHIBITION ([1]; dose 25 g/kg p.o. (so in the source)): 39%
% INHIBITION ([1]; dose 50 g/kg p.o. (so in the source)): 63%
% INHIBITION ([1]; dose 75 g/kg p.o. (so in the source)): 80%
effect on ethanol induced ulcers (in words) ([1]; rat, p.o.): inhibited ethanol induced ulcer formation
potency of PGE2 relative to acidified RIOPAN Extra Strength or acidified MAALOX ([1]; rat, p.o.): approximately 1000 times

[OH][Al]([OH])[OH] [Al(OH)3, aluminum hydroxide]
gastric cytoprotection (in words) (gastric mucosa): have cytoprotective properties

O.O=S(=O)([O-])[O-].O=S(=O)([O-])[O-].[Al+3].[Al+3].[Al+3].[Al+3].[Al+3].[Mg+2].[Mg+2].[Mg+2].[Mg+2].[Mg+2].[Mg+2].[Mg+2].[Mg+2].[Mg+2].[Mg+2].[OH-].[OH-].[OH-].[OH-].[OH-].[OH-].[OH-].[OH-].[OH-].[OH-].[OH-].[OH-].[OH-].[OH-].[OH-].[OH-].[OH-].[OH-].[OH-].[OH-].[OH-].[OH-].[OH-].[OH-].[OH-].[OH-].[OH-].[OH-].[OH-].[OH-].[OH-] [magaldrate, aluminum magnesium hydroxide sulfate]
acid neutralized / acid neutralization capacity (ANC) [2]: 13.5 to 15 mEq
effect on ethanol induced ulcers (in words) ([1]; rat, p.o.): inhibit ethanol induced ulcers in rats

CN/C(=N/CCSCc1nc[nH]c1C)NC#N [cimetidine]
protection in the ethanol induced ulcer model (ethanol induced ulcer): do not protect in this model

[Cl][Al]([Cl])[Cl] [aluminum chloride]
cytoprotective activity (in words) ([1]; ethanol-induced gastric lesion model): does not exhibit such activity

CC(C)[N+](C)(CCOC(=O)C1c2ccccc2Oc2ccccc21)C(C)C [propantheline bromide]
protection in the ethanol induced ulcer model (ethanol induced ulcer): do not protect in this model
